The values that follow are results of earlier work, collected in article PMC3222648, “Inotropic Action of the Puberty Hormone Kisspeptin in Rat, Mouse and Human: Cardiovascular Distribution and Characteristics of the Kisspeptin Receptor” (PLoS ONE, 2011).

For series [1] the following is noted: ref [44]; cited from earlier work. From the text: Our discovery that kisspeptins are positive inotropic agents in human and rodent heart is the first report of such activity. […] Activation of these signaling pathways would be consistent with function as both an inotropic a ...
The subject of the next series is native human tissue. Conditions: ref [40]; cited from earlier work.

As to apelin, the “pD2 (inotropic effect)” value in series [1] was 9.9. Besides, the BMAX in the series on native human tissue was 3.1 fmol/mg.
